Measured values: patent US8859628B2, “Method for preventing, treating and diagnosing disorders of protein aggregation” (priority 2003, dated 2014)

Assays:
[1] = biological target: T1, Aβ42 (Homo sapiens, UniProt P05067); details: cited from earlier work
T1 construct: The importance of residues 1-42 (Aβ42) in Alzheimer's disease was highlighted

[2] = system: TgCRND8 mice; assay: Morris Water Maze, spatial reference memory version, three-day trial paradigm (treatment/reversal study); format: in vivo, mouse; details: 1 month treatment from 5 months of age, three-day paradigm
Experimental: A cohort entered the study at 5 months of age and outcomes were analyzed at 6-months of age. The body weight, coat characteristics and in cage behavior was monitored. All experiments were performed according to the Canadian Council on Animal Care guidelines.
Behavioral Test—Reversal Study—Mice entered the Morris water maze test with a hidden platform on day one without pretraining. Mice were tested for 3 days with six trials per day. On the fourth day, the platform was removed from the pool and each mouse received one 30-s swim probe trial. On the last day the animals underwent a cue test in order to evaluate swimming ability, eye sight and general cognition. The cue test is composed at the platform being placed in a different quadrant than that used for testing and is tagged with a flag. Animals are allowed 60 s to find the platform. […] Behavioural data was analysed using a mixed model of factorial analysis of variance (ANOVA) with drug or genotype and training sessions as repeated measure factors.
The cognitive function of TgCRND8 mice was assessed using the spatial reference memory version of the Morris Water Maze using a three day trial paradigm (FIGS. 4-8).
Behavioural data was analysed using a mixed model of factorial analysis of variance (ANOVA) with drug and genotype as between subject variables and training sessions as within subject variable.
In these experiments, the dosage and oral administration of compounds, and the behavioral and neurochemical assays were the same as those employed in the above treatment experiments.

[3] = system: TgCRND8 mice; assay: Survival census (Kaplan-Meier); format: in vivo, mouse; details: vs untreated TgCRND8
Experimental: Survival Census—The probability of survival was assessed by the Kaplan-Meier technique, computing the probability of survival at every occurrence of death, thus making it suitable for small sample sizes. For the analyses of survival, 35 mice were used for each treatment group. The comparison between treatments was reported using the Tarone-Ware test.

[4] = system: TgCRND8 mice; assay: Cerebral amyloid plaque burden (anti-Aβ immunostaining, image analysis); format: in vivo, mouse
Experimental: (§1) Cerebral amyloid burden—Brains were removed and one hemisphere was fixed in 4% paraformaldehyde and embedded in paraffin wax in the mid saggital plane. To generate sets of systematic uniform random sections, 5 μm serial sections were collected across the entire hemisphere. Sets of sections at […] intervals were used for analyses (10-14 sections/set). Plaque were identified after antigen retrieval with formic acid, and incubated with primary anti-Aβ antibody (Dako M-0872), followed by secondary antibody (Dako StreptABCcomplex/horseradish kit). End products were visualized with DAB counter-stained with hematoxylin. Amyloid plaque burden was assessed using Leco IA-3001 image analysis software interfaced with Leica microscope and Hitachi KP-M1U CCD video camera. Vascular burden was analyzed similarly and a dissector was used to measure the diameter of affected vessels.
as §1, with “camera.” for “camera. Vascular burden was analyzed similarly and a dissector was used to measure the diameter of affected vessels.”

[5] = system: TgCRND8 mice; assay: Plasma Aβ levels; format: in vivo, mouse
Experimental: (§2) Plasma and Cerebral Aβ Content—Hemi-brain samples were homogenized in a buffered sucrose solution, followed by either 0.4% diethylamine/100 mM NaCl for soluble Aβ levels or cold formic acid for the isolation of total Aβ. After neutralization the samples were diluted and analyzed for Aβ40 and Aβ42 using commercially available kits (BIOSOURCE International). Each hemisphere was analyzed in triplicate with the mean±SEM reported. Western blot analyses were performed on all fractions using urea gels for Aβ species analyses. Aβ was detected using 6E10 (BIOSOURCE International) and Enhanced Chemiluminenscence (Amersham).
(§3) Plasma and Cerebral Aβ Content—Hemi-brain samples were homogenized in a buffered sucrose solution, followed by either 0.4% diethylamine/100 mM NaCl for soluble Aβ levels or cold formic acid for the isolation of total Aβ. After neutralization the samples were diluted and analyzed for Aβ40 and Aβ42 using commercially available kits (BIOSOURCE International). Each hemisphere was analyzed in triplicate with the mean±SEM reported.

[6] = system: TgCRND8 mice; assay: Cerebral Aβ content (Aβ40 and Aβ42 kits on hemi-brain homogenates); format: in vivo, mouse; parameters: Total Aβ: unit not given here
Experimental: as §2, §3

[7] = system: TgCRND8 mice; assay: Morris Water Maze, spatial reference memory version, five-day trial paradigm (prevention study); format: in vivo, mouse; details: 6 months of age
Experimental: Age and sex-matched cohorts of TgCRND8 mice and non-transgenic littermates (n=35 in each cohort) were either untreated, or were given a compound of the present invention as indicated below at 30 mg/day/mouse beginning at age of about 6 weeks. The mice were followed for outcome measures cognitive function, brain Aβ levels, brain pathology, and survival at 4 months and 6 months of age.
Two cohorts entered the study at 6 weeks of age and outcomes were analyzed at 4- and 6-months of age. The body weight, coat characteristics and in cage behavior was monitored. All experiments were performed according to the Canadian Council on Animal Care guidelines.
Behavioral tests—After non-spatial pre-training, mice underwent place discrimination training for 5 days with 4 trials per day. Behavioral data was analyzed using a mixed model of factorial analysis of variance (ANOVA) with drug or genotype and training sessions as repeated measure factors.
The cognitive function of TgCRND8 mice was assessed using the spatial reference memory version of the Morris Water Maze using a five-day trial paradigm (FIGS. 1C-1H). […] The improved performance was also not due to nutritional or caloric effects because body weight, activity, and coat condition were not different between treated and untreated cohorts. […] Gender effects were not significant between any treatment group (p=0.85).

[8] = system: AD patients; details: human, in vivo; cited from earlier work
[9] = 1 month treatment from 5 months of age
[10] = 1 month treatment, 30 mg/mouse/day from 5 months, analyzed at 6 months of age
[11] = 4 month prevention, 30 mg/mouse/day from 6 weeks of age
[12] = 6 month prevention, 30 mg/mouse/day from 6 weeks of age

T1 sequence (P05067 672-713 limits assumed): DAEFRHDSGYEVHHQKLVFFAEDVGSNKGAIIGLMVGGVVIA

SMILES: O[C@H]1[C@H](O)[C@@H](O)[C@H](O)[C@@H](O)[C@H]1O [Myo-Inositol, myo-inositol, reference compound]
- stabilization of Aβ42 micelle [1]: stabilizes a small micelle of Aβ42
- cognitive function, treated TgCRND8 mice vs non-Tg littermates (words) [2]: significantly different from treated non-Tg littermates
- effect on survival of TgCRND8 mice [3]: did not affect overall survival significantly
- plaque burden vs untreated [4, 9]: did not affect the plaque burden or Aβ load
- Plaque Area [4, 10]: 469968 ± 35664 μm^2
- Plaque Count [4, 10]: 1324 ± 69
- Total Plaque Area/Total Brain Area [4, 10]: 0.153 ± 0.088%
- Plaque Area [4, 11]: 91902 ± 7453 μm^2
- Plaque Count [4, 11]: 649 ± 50
- Total Plaque Area/Total Brain Area [4, 11]: 0.023 ± 0.004%
- Plaque Area [4, 12]: 400013 ± 19638 μm^2
- Plaque Count [4, 12]: 927 ± 78
- Total Plaque Area/Total Brain Area [4, 12]: 0.100 ± 0.005%
- Plasma Aβ Levels ([5]; 1 month treatment): 2110 ± 174 pg/mL
- effect on plasma Aβ levels in comparison to untreated (words) [5, 9]: Neither myo-inositol, epi-inositol nor scyllo-inositol treatment had any effect on plasma Aβ levels
- Plasma Aβ Levels ([5]; 4 month prevention): 942 ± 30 pg/mL
- Plasma Aβ Levels ([5]; 6 month prevention): 969 ± 67 pg/mL
- Aβ load vs untreated [6, 9]: did not affect the plaque burden or Aβ load
- Total Aβ [6, 10]: 20490 ± 526
- Total Aβ [6, 11]: 4969 ± 434
- Total Aβ [6, 12]: 17489 ± 354
- cognitive function, treated vs untreated TgCRND8 mice (words) [7]: did not alter cognitive function

SMILES: O[C@H]1[C@H](O)[C@@H](O)[C@H](O)[C@@H](O)[C@H]1O [inositol]
- CAMCOG subscales orientation and language [8]: did show significant improvement
